For one test, the target named is T1, 5β-reductase (5β-R) (Rattus norvegicus, UniProt P31210).
T1 construct: [3H]-aldosterone reduction with NADPH
T1 sequence (P31210 1-326): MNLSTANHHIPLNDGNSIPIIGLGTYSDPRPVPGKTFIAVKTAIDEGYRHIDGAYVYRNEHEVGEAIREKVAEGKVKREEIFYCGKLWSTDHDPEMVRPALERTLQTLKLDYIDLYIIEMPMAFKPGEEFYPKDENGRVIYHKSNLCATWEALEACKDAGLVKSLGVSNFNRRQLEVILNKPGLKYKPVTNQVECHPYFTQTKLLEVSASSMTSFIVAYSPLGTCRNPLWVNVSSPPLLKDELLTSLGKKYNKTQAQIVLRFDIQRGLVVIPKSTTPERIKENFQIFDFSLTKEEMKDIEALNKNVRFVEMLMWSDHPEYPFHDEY
Kind of test: Screening of endogenous substances for inhibition of 5β-reductase (Example III). Format: biochemical. The note with it: endogenous substances screened. An excerpt: (§1) Various endogenous substances which bear similar structural resemblances to glycyrrhetinic acid (GA) were screened for inhibitory activity against 11β-hydroxysteroid dehydrogenase (11β-OHSD) and 5β-reductase (5β-R).

For test [1], the target named is T2, 11β-hydroxysteroid dehydrogenase (11β-OHSD) (Rattus norvegicus, UniProt P16232). Kind of test: Screening of endogenous substances for inhibition of 11β-OHSD (Example III). It is filed as biochemical. The note with it: endogenous substances screened.
Excerpt: as §1

In the next test the test system is adrenalectomized rats. Kind of test: Mineralocorticoid action conferred upon corticosterone in adrenalectomized rats (Example III). It is filed as in vivo. As to the method:
3α,5β-THDOC and bile acids were also treated to determine whether, like GA, they could confer mineralocorticoid (MC) actions upon corticosterone.

Test [2] deals with T2, 11β-hydroxysteroid dehydrogenase (11β-OHSD). The note with it: incubated with enzyme; cited from earlier work.
The subject of the next test is steroid 5β-reductase. The note with it: incubated with enzyme; cited from earlier work.
Test [3] has as its system adrenalectomized male rats. The note with it: cited from earlier work.

The values that follow come from US6010721A, “Glycyrrhetinic-acid-like factor” (The Miriam Hospital, priority 1996, dated 2000).

Structures are written as SMILES. “Also recorded” adds a separate entry of the source.

T2 sequence (P16232 whole entry): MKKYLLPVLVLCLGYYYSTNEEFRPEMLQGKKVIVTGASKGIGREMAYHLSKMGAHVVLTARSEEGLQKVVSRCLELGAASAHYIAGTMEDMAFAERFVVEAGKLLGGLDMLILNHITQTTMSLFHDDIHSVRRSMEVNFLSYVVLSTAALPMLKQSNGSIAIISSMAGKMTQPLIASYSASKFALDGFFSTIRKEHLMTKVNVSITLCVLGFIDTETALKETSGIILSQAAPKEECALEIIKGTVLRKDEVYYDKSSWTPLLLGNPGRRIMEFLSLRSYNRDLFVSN

Take `C[C@]12CC[C@@H](O)C[C@H]1CC[C@@H]1[C@@H]2CC[C@]2(C)[C@@H](C(=O)CO)CC[C@@H]12` [3α,5β-THDOC, 3α,5β-tetrahydrodeoxycorticosterone]: the “inhibition of 5β-R (potency in words)” value against 5β-reductase (5β-R) is “most potent inhibitor; also recorded: inhibit both 11β-OHSD and 5β-R activity”. In test [1], the “inhibition of 11β-OHSD (potency in words)” value was “most potent inhibitor; also recorded: inhibit both 11β-OHSD and 5β-R activity”.

Turning to `C[C@H](CCC(=O)O)[C@H]1CC[C@H]2[C@@H]3[C@H](O)C[C@@H]4C[C@H](O)CC[C@]4(C)[C@H]3C[C@H](O)[C@]12C` [CA, cholic acid], the “inhibition of 5β-R (potency in words)” value on 5β-reductase (5β-R) was “weak inhibitors”. For the same compound, the “inhibition of 11β-OHSD (potency in words)” value in test [1] is on record as “moderate inhibitor”.

Take `C[C@H](CCC(=O)O)[C@H]1CC[C@H]2[C@@H]3[C@H](O)C[C@@H]4C[C@H](O)CC[C@]4(C)[C@H]3CC[C@]12C` [CDCA, chenodeoxycholic acid]: the “inhibition of 5β-R (potency in words)” value against 5β-reductase (5β-R) was “most potent inhibitor; also recorded: inhibit both 11β-OHSD and 5β-R activity”. Further, the “inhibition of 11β-OHSD (potency in words)” value in test [1] is “most potent inhibitor; also recorded: inhibit both 11β-OHSD and 5β-R activity”. The “antinatriuresis caused by corticosterone after pretreatment” value in the test with adrenalectomized rats (adrenalectomized rats pretreated with CDCA, then corticosterone) is on record as “significant antinatriuresis”.

In the case of `C[C@H](CCC(=O)O)[C@H]1CC[C@H]2[C@@H]3CC[C@@H]4C[C@H](O)CC[C@]4(C)[C@H]3C[C@H](O)[C@]12C` [DCA, deoxycholic acid], the “inhibition of 5β-R (potency in words)” value against 5β-reductase (5β-R) was “moderate inhibitor”. Besides, the “inhibition of 11β-OHSD (potency in words)” value in test [1] is reported as “weak inhibitor”.

Turning to `CC1(C)[C@@H](O)CC[C@]2(C)[C@H]3C(=O)C=C4[C@@H]5C[C@@](C)(C(=O)O)CC[C@]5(C)CC[C@@]4(C)[C@]3(C)CC[C@@H]12` [Glycyrrhetinic Acid], in test [2], the “inhibition of 11β-OHSD” value is “markedly inhibit”. Further, the “inhibition of steroid 5β-reductase” value in the test with steroid 5β-reductase was “markedly inhibit”.

`C[C@H](CCC(=O)O)[C@H]1CC[C@H]2[C@@H]3CC[C@@H]4C[C@H](O)CC[C@]4(C)[C@H]3CC[C@]12C` [LCA, lithocholic acid]: the “inhibition of 5β-R (potency in words)” value on 5β-reductase (5β-R) is “weak inhibitors; also recorded: inhibit both 11β-OHSD and 5β-R activity”. Besides, in test [1], the “inhibition of 11β-OHSD (potency in words)” value is “potent inhibitor; also recorded: inhibit both 11β-OHSD and 5β-R activity”.

For `CCC[C@@H]1CC2=CC(=O)CC[C@]2(C)[C@H]2CC[C@@]3(C)[C@@H](CC[C@@]3(O)CCC(=O)O)[C@H]12` [RU28318, reference compound], the “effect of antimineralocorticoid on the CDCA/corticosterone antinatriuresis” value in the test on adrenalectomized rats (adrenalectomized rats, CDCA + corticosterone) is “blocked”.

`CC1(C)[C@@H](OC(=O)CCC(=O)O)CC[C@]2(C)[C@H]3C(=O)C=C4[C@@H]5C[C@@](C)(C(=O)O)CC[C@]5(C)CC[C@@]4(C)[C@]3(C)CC[C@@H]12` [carbenoxolone sodium]: in test [3], the “effect on Na^+ retaining properties of aldosterone and deoxycorticosterone” value is reported as “amplified the Na^+ retaining properties”; the “effect on glucocorticoids corticosterone and cortisol” value is given as “display minearlocorticoid like activity”.
